Key:
RXF-631L = test: 39-cancer cell panel assay: RXF-631L; type: cell-based; conditions: Homo sapiens, Re
SK-OV-3 = test: 39-cancer cell panel assay: SK-OV-3; type: cell-based; conditions: Homo sapiens
MCF-7 = test: 39-cancer cell panel assay: MCF-7; type: cell-based; conditions: Homo sapiens, MCF7, Br
HBC-5 = test: 39-cancer cell panel assay: HBC-5; type: cell-based; conditions: Homo sapiens, HBC5, Br
LOX-IMVI = test: 39-cancer cell panel assay: LOX-IMVI; type: cell-based; conditions: Homo sapiens, Me
SNB-75 = test: 39-cancer cell panel assay: SNB-75; type: cell-based; conditions: Homo sapiens, CNS
MKN74 = test: 39-cancer cell panel assay: MKN74; type: cell-based; conditions: Homo sapiens, MKN-74, St
PC-3 = test: 39-cancer cell panel assay: PC-3; type: cell-based; conditions: Homo sapiens, Pro
[1] = Cytotoxicity assay (Cell Counting Kit-8 / WST-8) on DLD-1 cells; type: cell-based, human; conditions: human, DLD-1 colorectal adenocarcinoma cells; DLD-1, original medium, normal oxygen, 100 μM, 24 h
MKN28 = test: 39-cancer cell panel assay: MKN28; type: cell-based; conditions: Homo sapiens, MKN-28, St
St-4 = test: 39-cancer cell panel assay: St-4; type: cell-based; conditions: Homo sapiens

SMILES	GI50 (RXF-631L) [µM]	GI50 (SK-OV-3) [µM]	GI50 (MCF-7) [µM]	GI50 (HBC-5) [µM]	GI50 (LOX-IMVI) [µM]	GI50 (SNB-75) [µM]	GI50 (MKN74) [µM]	GI50 (PC-3) [µM]	viability at 24 h, 100 µM [1] [%]	GI50 (MKN28) [µM]	GI50 (St-4) [µM]
C/C(=C\Cc1c(O)c(Cl)c(C)c(C=O)c1O)CC/C=C(\C)[C@@H]1CC(=O)C(C)(C)O1 [Compound 1, ascofuranone]	12	13	9	28	2.8	23	13	13	~80	9.7	14
CC(C)=CCC/C(C)=C/CC/C(C)=C/Cc1c(O)c(Cl)c(C)c(C=O)c1O [Compound 8]	11	37	1.3	16	0.61	0.7	1.9	1.2	–	1.3	1.1

Reference: PMC6131557, “Selective Cytotoxicity of Dihydroorotate Dehydrogenase Inhibitors to Human Cancer Cells Under Hypoxia and Nutrient-Deprived Conditions” (Frontiers in Pharmacology, 2018)
